According to patent US6784181B2, “Piperazine-containing compounds useful in the treatment of pain” (AstraZeneca AB, priority 1999, dated 2004):
Structures can show the parent of a compound that is named as a salt. Where two headings read alike, the source gives them in different places.

Assays:
[1] = Metabolic stability RLM (% remaining); assay type: in vitro ADME, rat
[2] = molecular target: T1, cloned human δ receptors (HDELTA) (Homo sapiens, UniProt P41143); test: Binding assay, membranes of 293S cells expressing cloned human δ receptor
T1 construct: expressed in transfected cells; host or cells: human 293S cells (geneticin-selected), membranes
T1 sequence (P41143 whole entry): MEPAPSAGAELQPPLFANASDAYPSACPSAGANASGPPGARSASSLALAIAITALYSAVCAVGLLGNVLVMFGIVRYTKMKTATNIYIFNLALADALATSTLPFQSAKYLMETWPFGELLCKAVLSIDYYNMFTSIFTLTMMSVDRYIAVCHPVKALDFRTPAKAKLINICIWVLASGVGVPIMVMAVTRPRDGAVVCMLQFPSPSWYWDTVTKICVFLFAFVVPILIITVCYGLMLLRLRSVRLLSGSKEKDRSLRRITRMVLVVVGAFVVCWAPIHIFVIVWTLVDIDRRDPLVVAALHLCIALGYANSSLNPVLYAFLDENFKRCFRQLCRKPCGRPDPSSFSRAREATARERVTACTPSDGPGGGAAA

[3] = Metabolic stability MLM (% remaining); assay type: in vitro ADME, mouse
[4] = molecular target: T2, HDELTA (Homo sapiens, UniProt P41143); test: Functional agonism HDELTA (EC50, % EMAX); assay type: biochemical
T2 construct: expressed in transfected cells
T2 sequence (P41143 whole entry): as above

[5] = molecular target: MOUSE BRAIN (Mus musculus, UniProt P32300); test: Functional agonism mouse brain (EC50, % EMAX); assay type: biochemical
Sequence of MOUSE BRAIN (P32300 whole entry): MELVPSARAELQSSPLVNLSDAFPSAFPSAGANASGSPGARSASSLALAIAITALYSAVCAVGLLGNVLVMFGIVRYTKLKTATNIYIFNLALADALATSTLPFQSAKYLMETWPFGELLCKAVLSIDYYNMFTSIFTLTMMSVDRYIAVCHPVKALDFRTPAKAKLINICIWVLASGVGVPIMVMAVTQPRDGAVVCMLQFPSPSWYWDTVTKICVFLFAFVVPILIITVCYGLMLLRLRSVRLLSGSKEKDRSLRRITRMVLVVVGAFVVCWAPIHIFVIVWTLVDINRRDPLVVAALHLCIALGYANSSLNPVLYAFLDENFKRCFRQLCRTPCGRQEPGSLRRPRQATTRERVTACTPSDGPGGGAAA

[6] = molecular target: RAT BRAIN (Rattus norvegicus, UniProt P33533); test: Functional agonism rat brain (EC50, % EMAX); assay type: biochemical
Sequence of RAT BRAIN (P33533 whole entry): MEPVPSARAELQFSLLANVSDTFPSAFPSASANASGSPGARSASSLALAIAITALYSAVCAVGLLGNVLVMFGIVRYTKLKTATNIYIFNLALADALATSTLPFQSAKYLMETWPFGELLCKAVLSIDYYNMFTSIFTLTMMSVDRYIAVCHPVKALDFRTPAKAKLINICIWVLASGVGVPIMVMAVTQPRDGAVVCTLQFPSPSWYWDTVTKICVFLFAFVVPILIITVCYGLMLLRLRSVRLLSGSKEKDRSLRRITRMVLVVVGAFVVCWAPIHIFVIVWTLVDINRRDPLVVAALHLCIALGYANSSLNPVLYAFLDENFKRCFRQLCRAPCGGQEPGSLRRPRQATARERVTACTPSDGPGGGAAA

[7] = displacement of radioligand, human δ receptor membranes, read-out: HDELTA

Structure (SMILES): CCN(CC)C(=O)c1ccc(C(c2cccc3cccnc23)N2CCN(Cc3ccco3)CC2)cc1 (stereo not drawn) [Example 14, N,N-diethyl-4-[[4-(2-furanylmethyl)-1-piperazinyl](8-quinolinyl)methyl]benzamide]
- RLM 10000 % rem. [1]: 13.5 % rem.
- RLM 100000 % rem. [1]: 84.5 % rem.
- IC50 [2]: 0.181 nM
- MLM 10000 % rem. [3]: 0 % rem.
- MLM 100000 % rem. [3]: 49 % rem.
- EC50 [4]: 0.76 nM
- Emax [4]: 88.7%
- Emax [5]: 106%
- Emax [6]: 102%

Structure (SMILES): CCN(CC)C(=O)c1ccc(C(c2cccc3cccnc23)N2CCN(Cc3c[nH]cn3)CC2)cc1 (stereo not drawn) [Example 18, N,N-diethyl-4-[[4-(4-imidazolylmethyl)-1-piperazinyl](8-quinolinyl)methyl]benzamide Dihydrochloride]
- IC50 [2, 7]: 1.54 nM
- Emax [4]: 93.8%
- EC50 ([4]; read-out: HDELTA EC50): 5.85 nM
- Emax [5]: 108%
- Emax [6]: 111%

Structure (SMILES): CCN(CC)C(=O)c1ccc(C(c2cccc3cccnc23)N2CCN(Cc3ccsc3)CC2)cc1 (stereo not drawn) [Example 13, N,N-diethyl-4-[[4-(3-thienylmethyl)-1-piperazinyl](8-quinolinyl)methyl]benzamide]
- RLM 10000 % rem. [1]: 10 % rem.
- RLM 100000 % rem. [1]: 62.667 % rem.
- IC50 [2]: 1.03 nM
- MLM 10000 % rem. [3]: 1.667 % rem.
- MLM 100000 % rem. [3]: 71.667 % rem.
- EC50 [4]: 1.44 nM
- Emax [4]: 101%
- Emax [5]: 113%
- Emax [6]: 112%

Structure (SMILES): CCN(CC)C(=O)c1ccc(C(c2cccc3cccnc23)N2CCN(Cc3ncc[nH]3)CC2)cc1.Cl.Cl (stereo not drawn) [Example 17, N,N-diethyl-4-[[4-(2-imidazolylmethyl)-1-piperazinyl](8-quinolinyl)methyl]benzamide Dihydrochloride]
- RLM 10000 % rem. [1]: 5.5 % rem.
- RLM 100000 % rem. [1]: 75 % rem.
- IC50 [2]: 1.09 nM
- MLM 10000 % rem. [3]: 0 % rem.
- MLM 100000 % rem. [3]: 21.5 % rem.
- EC50 [4]: 3.03 nM
- Emax [4]: 95.7%
- Emax [5]: 92.5%
- Emax [6]: 106%

Structure (SMILES): CCN(CC)C(=O)c1ccc(C(c2cccc3cccnc23)N2CCN(Cc3ccccn3)CC2)cc1 (stereo not drawn) [Example 12, N,N-diethyl-4-[[4-(2-pyridinylmethyl)-1-piperazinyl](8-quinolinyl)methyl]benzamide Dihydrochloride]
- RLM 10000 % rem. [1]: 21.5 % rem.
- RLM 100000 % rem. [1]: 66 % rem.
- IC50 [2]: 0.692 nM
- MLM 10000 % rem. [3]: 0 % rem.
- MLM 100000 % rem. [3]: 53.5 % rem.
- EC50 [4]: 0.76 nM
- Emax [4]: 97.7%
- Emax [5]: 91.3%
- Emax [6]: 106%

Structure (SMILES): CCN(CC)C(=O)c1ccc(C(c2cccc3cccnc23)N2CCN(Cc3ccoc3)CC2)cc1 (stereo not drawn) [Example 15, N,N-diethyl-4-[[4-(3-furanylmethyl)-1-piperazinyl](8-quinolinyl)methyl]benzamide]
- RLM 10000 % rem. [1]: 10 % rem.
- RLM 100000 % rem. [1]: 86 % rem.
- IC50 [2]: 0.787 nM
- MLM 10000 % rem. [3]: 0 % rem.
- MLM 100000 % rem. [3]: 68 % rem.
- EC50 [4]: 0.79 nM
- Emax [4]: 89%
- Emax [5]: 110%
- Emax [6]: 109%

Structure (SMILES): CCN(CC)C(=O)c1ccc(C(c2cccc3cccnc23)N2CCN(Cc3cccs3)CC2)cc1.Cl.Cl (stereo not drawn) [Example 16, N,N-diethyl-4-[[4-(2-thiophenylmethyl)-1-piperazinyl](8-quinolinyl)methyl]benzamide Dihydrochloride]
- RLM 10000 % rem. [1]: 9.5 % rem.
- RLM 100000 % rem. [1]: 64.5 % rem.
- IC50 [2]: 1.51 nM
- MLM 10000 % rem. [3]: 0.5 % rem.
- MLM 100000 % rem. [3]: 46.5 % rem.
- EC50 [4]: 2.39 nM
- Emax [4]: 99.4%
- Emax [5]: 98.4%
- Emax [6]: 100%

Structure (SMILES): CCN(CC)C(=O)c1ccc(C(c2cccc3cccnc23)N2CCN(Cc3nc[nH]n3)CC2)cc1.Cl.Cl (stereo not drawn) [Example 19, N,N-diethyl-4-[[4-(3-triazolylmethyl)-1-piperazinyl](8-quinolinyl)methyl]benzamide Dihydrochloride]
- IC50 [2, 7]: 18.8 nM
- HDELTA % EMAX [4]: 97.88%
- EC50 ([4]; read-out: HDELTA EC50): 85.2 nM
- EC50 [5]: 1370 nM
- MOUSE BRAIN % EMAX [5]: 48.68%
- EC50 [6]: 2810 nM
- RAT BRAIN % EMAX [6]: 56.35%
